Test results from ChEMBL document CHEMBL1201862, “PubChem BioAssay data set” (2004).
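Cells were grown in 96-well plates and exposed to each compound for 48 hours at five concentrations; endpoints were interpolated linearly between bracketing concentrations, or set to the highest concentration if not reached. GI50: concentration for 50% inhibition of growth.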 The source made the active and inactive calls. Rule as the data show it: active = GI50 up to about 1.1 µM and inactive = higher.

Columns and labels:
Experiment in all cases: inhibition of tumour cell growth, NCI panel, 48 h
HOP-92 = tested on: HOP-92
HCT-116 = tested on: HCT-116
M14 = tested on: M14
Hs-578T = tested on: Hs-578T
A549 = tested on: A549
SNB-19 = tested on: SNB-19
RPMI-8226 = tested on: RPMI-8226
OVCAR-3 = tested on: OVCAR-3
MDA-MB-231 = tested on: MDA-MB-231
U-251 = tested on: U-251
T47D = tested on: T47D
OVCAR-4 = tested on: OVCAR-4
BT-549 = tested on: BT-549
SK-MEL-5 = tested on: SK-MEL-5
786-0 = tested on: 786-0
ACHN = tested on: ACHN
COLO 205 = tested on: COLO 205
MDA-N = tested on: MDA-N
TK-10 = tested on: TK-10

Compound | GI50 (HOP-92) | GI50 (HCT-116) | GI50 (M14) | GI50 (Hs-578T) | GI50 (A549) | GI50 (SNB-19) | GI50 (RPMI-8226) | GI50 (OVCAR-3) | GI50 (MDA-MB-231) | GI50 (U-251) | GI50 (T47D) | GI50 (OVCAR-4) | GI50 (BT-549) | GI50 (SK-MEL-5) | GI50 (786-0) | GI50 (ACHN) | GI50 (COLO 205) | GI50 (MDA-N) | GI50 (TK-10)
C=CCSc1nnc2cc(CN3CCCC3)c(-c3ccc(Cl)cc3)nn12 | 16.1 µM (inactive) | 14.5 µM (inactive) | 18.1 µM (inactive) | 40.6 µM (inactive) | 28.1 µM (inactive) | 24.6 µM (inactive) | 39.1 µM (inactive) | 17.1 µM (inactive) | 19.6 µM (inactive) | 17.5 µM (inactive) | 20.9 µM (inactive) | 20.3 µM (inactive) | 20.7 µM (inactive) | 15.5 µM (inactive) | 17.1 µM (inactive) | 15.7 µM (inactive) | 17.6 µM (inactive) | 16.7 µM (inactive) | 20.7 µM (inactive)
Cc1ccc(P(c2ccc(C)cc2)c2ccc(C)cc2)cc1 | 5.66 µM (inactive) | 12.4 µM (inactive) | 19.3 µM (inactive) | 15.5 µM (inactive) | 14.6 µM (inactive) | 61.8 µM (inactive) | 6.05 µM (inactive) | 15.7 µM (inactive) | 25.9 µM (inactive) | 14.3 µM (inactive) | 16.3 µM (inactive) | 19.8 µM (inactive) | 35.4 µM (inactive) | 16.6 µM (inactive) |  | 23.2 µM (inactive) | 14.5 µM (inactive) | 21.9 µM (inactive) | 31 µM (inactive)
COc1ccc(-c2c(-c3ccccc3)c(C)nc3[nH]c(=S)[nH]c(=S)c23)cc1OC | 33.8 µM (inactive) | 22 µM (inactive) | 36.1 µM (inactive) | 35.6 µM (inactive) | 30.3 µM (inactive) | 60.3 µM (inactive) | 21.6 µM (inactive) | 20.3 µM (inactive) | 26.9 µM (inactive) | 33.4 µM (inactive) | 38.3 µM (inactive) | > 100 µM (inactive) | 42.2 µM (inactive) | 28.1 µM (inactive) | 35.6 µM (inactive) | 30.3 µM (inactive) | 25.3 µM (inactive) | 30.1 µM (inactive) | 45.7 µM (inactive)
COC(=O)C1Cc2cc3c(cc2C1)CCC3 | 34 µM (inactive) | > 100 µM (inactive) | > 100 µM (inactive) | > 100 µM (inactive) | > 100 µM (inactive) | > 100 µM (inactive) | > 100 µM (inactive) | > 100 µM (inactive) | > 100 µM (inactive) | > 100 µM (inactive) | > 100 µM (inactive) | > 100 µM (inactive) | > 100 µM (inactive) | > 100 µM (inactive) | > 100 µM (inactive) | > 100 µM (inactive) | > 100 µM (inactive) | > 100 µM (inactive) | 3.65 µM (inactive)
COc1cc(C=O)cc(/C=N/c2ccc(Br)cc2)c1O | 3.53 µM (inactive) | 6.79 µM (inactive) | 1.66 µM (inactive) | 1.8 µM (inactive) | 4.85 µM (inactive) | 12.7 µM (inactive) | 3.33 µM (inactive) | 13.5 µM (inactive) | 4.44 µM (inactive) | 4.57 µM (inactive) | 1.15 µM (inactive) | 22.5 µM (inactive) | 6.25 µM (inactive) | 2.19 µM (inactive) |  | 2.53 µM (inactive) | 4.09 µM (inactive) | 3.72 µM (inactive) | 32.4 µM (inactive)
N=C1/C(=C/c2ccc(F)cc2)C(=O)N=C2SC=NN12 | 69.2 µM (inactive) | > 100 µM (inactive) | > 100 µM (inactive) | > 100 µM (inactive) | > 100 µM (inactive) | > 100 µM (inactive) | > 100 µM (inactive) | > 100 µM (inactive) | > 100 µM (inactive) | > 100 µM (inactive) | > 100 µM (inactive) | > 100 µM (inactive) | 94.6 µM (inactive) | 62.5 µM (inactive) | > 100 µM (inactive) | > 100 µM (inactive) | > 100 µM (inactive) | 83.2 µM (inactive) | > 100 µM (inactive)
COC1CC(OC2CCC3(C)C(=CCC4C3C(OC(C)=O)C(OC(=O)CC(C)C)C3(C)C(C(C)=O)CCC43O)C2)OC(C)C1OC1CC(OC)C(OC2CC(OC)C(OC3OC(C)C(OC4OC(CO)C(O)C(O)C4O)C(OC)C3O)C(C)O2)C(C)O1 (stereo not drawn) | > 75 µM (inactive) | > 75 µM (inactive) | > 75 µM (inactive) | > 75 µM (inactive) | > 75 µM (inactive) | > 75 µM (inactive) | > 75 µM (inactive) | > 75 µM (inactive) | > 75 µM (inactive) | > 75 µM (inactive) | > 75 µM (inactive) | > 75 µM (inactive) | > 75 µM (inactive) | > 75 µM (inactive) | > 75 µM (inactive) | > 75 µM (inactive) | > 75 µM (inactive) | > 75 µM (inactive) | > 75 µM (inactive)
C/C(=N\NC(=O)c1ccncc1)c1ccc2ccccc2c1O | 8.28 µM (inactive) | 0.608 µM (active) | 2.08 µM (inactive) | 16.8 µM (inactive) | 1.77 µM (inactive) | 17.5 µM (inactive) | 4.33 µM (inactive) | 0.29 µM (active) | 5.08 µM (inactive) | 2.69 µM (inactive) | 1.01 µM (active) | 0.966 µM (active) | 10.8 µM (inactive) | 1.67 µM (inactive) | 0.548 µM (active) | 0.993 µM (active) | 0.561 µM (active) | 4.41 µM (inactive) | 4.63 µM (inactive)
COc1ccc(N2C(=O)C3c4[nH]c5c(C)cccc5c4C4CCC(C(C)C)CC4C3C2=O)cc1 (stereo not drawn) | 12.1 µM (inactive) | 9.73 µM (inactive) | 9.53 µM (inactive) | 8.09 µM (inactive) | 5.41 µM (inactive) | 22.1 µM (inactive) | 1.88 µM (inactive) | 13.9 µM (inactive) | 5.96 µM (inactive) | 10 µM (inactive) | 5.96 µM (inactive) | 14 µM (inactive) | 28.6 µM (inactive) | 12 µM (inactive) | 4.38 µM (inactive) | 13.7 µM (inactive) | 12.4 µM (inactive) | 10.3 µM (inactive) | 24.4 µM (inactive)
CCN1CCC(O)(c2ccc(Oc3ccc(C)cc3)cc2)C(C(=O)c2ccc(Oc3ccc(C)cc3)cc2)C1 (stereo not drawn) | 10 µM (inactive) | 6.41 µM (inactive) | 7.43 µM (inactive) | 17.8 µM (inactive) | 12.8 µM (inactive) | 14.2 µM (inactive) | 1.48 µM (inactive) | 16 µM (inactive) | 6.18 µM (inactive) | 11.6 µM (inactive) | 12.8 µM (inactive) | 1.94 µM (inactive) | 10.6 µM (inactive) | 8.04 µM (inactive) | 4.99 µM (inactive) | 13.2 µM (inactive) | 12.1 µM (inactive) | 10.7 µM (inactive) | 8.61 µM (inactive)
